Tests used:
[1] = Stability of betamethasone dipropionate under autoclave; type: physicochemical
IL13 = test: OVA model: IL13 ELISA in lung protein extracts; type: in vivo, BALB/c mice; conditions: FIG. 3
Procedure: In order to study modulation of airway inflammation, BALB/c mice of about 6 to about 8 weeks old are sensitized by intraperitoneal injection of about 10 μg ovalbumin (OVA) (Sigma Aldrich, Schnelldorf, Germany) emulsified in aluminum hydroxide (AlumInject; Perbio, Erembodegem, Belgium) on days 0 (DO) and 7 (D7). Mice are subsequently exposed to allergens by daily inhalation of an aerosol of OVA about 1%, for about 30 minutes, generated by ultrasonic nebulizer (Devilbiss 2000), from day 21 to day 25. Mice are subjected to about 50 μl intra-nasal instillations from day 18 to day 24 and are sacrificed on day 26, as previously reported by Cataldo et al.: Am. J. Pathol. 161 (2):491-498 (2002), which is incorporated herein in its entirety by reference. Placebo mice are intra-nasal injected with PBS. As stated above, the left lung is excised and frozen immediately at about −80° C. and then disrupted in liquid N2 by using a Mikro-Dismembrator (Braun Biotech International, Gmbh Melsungen, Germany) to form a homogenized powder. […] IL13 levels are measured in non-pooled lung protein samples by ELISA (duoset kit, R&D Systems, Abingdon, United Kingdom) following manufacturer's instructions. […]

[2] = system: Cigarette smoke-exposed mice; test: Cigarette smoke exposure model: BALF neutrophils; type: in vivo, C57BL/6 mice; conditions: budesonide alone about 500 μg/ml
Procedure: BALF supernatant is collected for protein assessment while cells are used for differential cell counts. Differential cell counts based on morphologic criteria are carried out on cytocentrifuged preparations after staining with haematoxylin-eosin (Diff-Quick, Dade, Belgium). Cells are recovered by gentle manual aspiration. After centrifugation of bronchoalveolar fluid (BALF) (about 1200 rpm for about 10 minutes, at about 4° C.), the supernatant is frozen at about −80° C. for protein assessment and the cell pellet is re-suspended in about 1 ml PBS-EDTA about 0.05 mM. The differential cell counts are performed on cytocentrifuged preparations (Cytospin) after staining with Diff-Quick (Dade, Belgium).
C57BL/6 mice are exposed to 10 cigarettes 5 days per week during 6 weeks using the Inexpose® system (Scireq, Montreal, Canada). Mice are treated by an about 50 μl intra-nasal injection 5 days per week during 6 weeks. Mice are sacrificed on day 43. Placebo mices also called sham exposed mices are injected with PBS.
Bronchoalveolar lavage fluid (BALF) analysis is the same as previously described in Example 3 (model of airway obstruction and inflammation).
Results of inflammatory cells in bronchoalveolar lavage fluid number were expressed as mean +/− SEM and the comparison between the groups is performed using Mann-Whitney test. Tests are performed using GraphPad Prism 5. […]

stability under autoclave [1]	SMILES	IL13 levels in lung tissue after allergen exposure (IL13; budesonide about 100 μg/ml compared to budesonide about 100 μg/ml—cyclodextrin about 10 mM)	IL13 levels in lung tissue after allergen exposure (IL13; budesonide about 250 μg/ml compared to complex budesonide about 250 μg/ml—cyclodextrin about 10 mM)	inflammation level in BALF of treated mice [2]	Percentage of neutrophils (+/−SEM) in BALF, Neutrophils (%) ([2]; about 50 μl intra-nasal 5 days per week during 6 weeks)
degrades under autoclave	CCC(=O)OCC(=O)[C@@]1(OC(=O)CC)[C@@H](C)C[C@H]2[C@@H]3CCC4=CC(=O)C=C[C@]4(C)[C@@]3(F)[C@@H](O)C[C@@]21C [Betamethasone Dipropionate]				
	CCCC1O[C@@H]2C[C@H]3[C@@H]4CCC5=CC(=O)C=C[C@]5(C)[C@H]4[C@@H](O)C[C@]3(C)[C@]2(C(=O)CO)O1 (stereo partly drawn) [budesonide, 16,17-(butylidenebis(oxy))-11,21-dihydroxy-, (11-β3,16-a)-pregna-1,4-diene-3,20-dione]	higher IL13 levels	higher levels of IL13	significantly not efficient enough	about 9.64%

Reference: patent US9993487B2 (Universite de Liege, priority 2014, dated 2018)
